According to patent publication US11739098B2 (BRISTOL-MYERS SQUIBB COMPANY, priority 2017, dated 2023):

Key:
Format in all cases: cell-based
human TLR7 = target: T1, human TLR7 (Homo sapiens, UniProt Q9NYK1); experiment: TLR7 inhibition reporter assay (HEK-Blue cells, SEAP reporter, gardiquimod stimulation); conditions: HEK-Blue cells overexpressing human TLR7, SEAP reporter, gardiquimod 7.5 μM
T1 construct: host or cells: HEK-Blue cells (HEK293-derived reporter line)
T1 sequence (Q9NYK1 27-1049): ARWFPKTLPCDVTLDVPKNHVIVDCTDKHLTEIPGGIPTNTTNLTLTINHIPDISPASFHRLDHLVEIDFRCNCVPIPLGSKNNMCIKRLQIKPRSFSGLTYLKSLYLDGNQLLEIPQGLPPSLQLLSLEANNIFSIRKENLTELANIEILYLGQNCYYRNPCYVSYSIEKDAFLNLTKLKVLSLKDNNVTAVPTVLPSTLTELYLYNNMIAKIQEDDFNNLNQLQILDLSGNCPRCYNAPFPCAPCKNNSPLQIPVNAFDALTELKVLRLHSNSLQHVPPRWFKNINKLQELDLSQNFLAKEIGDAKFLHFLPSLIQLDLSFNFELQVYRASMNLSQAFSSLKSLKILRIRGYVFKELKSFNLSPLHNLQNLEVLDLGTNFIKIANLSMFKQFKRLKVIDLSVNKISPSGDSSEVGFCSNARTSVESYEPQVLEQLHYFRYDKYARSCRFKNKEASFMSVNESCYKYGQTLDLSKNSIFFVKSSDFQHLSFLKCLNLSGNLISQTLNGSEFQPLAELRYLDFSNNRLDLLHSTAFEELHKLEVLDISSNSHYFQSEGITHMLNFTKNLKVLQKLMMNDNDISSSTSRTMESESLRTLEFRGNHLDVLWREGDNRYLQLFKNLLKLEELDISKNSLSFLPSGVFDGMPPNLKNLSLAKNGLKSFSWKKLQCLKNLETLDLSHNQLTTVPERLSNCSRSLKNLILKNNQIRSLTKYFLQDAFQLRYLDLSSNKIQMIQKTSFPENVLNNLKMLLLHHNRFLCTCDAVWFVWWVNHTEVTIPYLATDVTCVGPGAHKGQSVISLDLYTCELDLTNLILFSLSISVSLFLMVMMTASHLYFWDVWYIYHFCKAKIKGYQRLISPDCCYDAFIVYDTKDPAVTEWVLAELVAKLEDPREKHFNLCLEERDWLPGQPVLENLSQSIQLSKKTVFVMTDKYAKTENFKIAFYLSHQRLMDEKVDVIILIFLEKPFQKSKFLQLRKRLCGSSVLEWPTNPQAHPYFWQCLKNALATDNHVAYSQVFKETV
How it was run: (§1)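 Read-out is SEAP activity in HEK-Blue detection medium after 22 h at 37 °C, converted to percent inhibition against agonist-plus-DMSO and reference-inhibitor controls. Cells saw compound (0.05 nM–50 μM, 30 min, room temperature) before gardiquimod 7.5 μM, R848 15.9 μM or ODN2006 5 nM for TLR7, TLR8 and TLR9, respectively.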

human TLR9 = target: T2, human TLR9 (Homo sapiens, UniProt Q9NR96); experiment: TLR9 inhibition reporter assay (HEK-Blue cells, SEAP reporter, ODN2006 stimulation); conditions: HEK-Blue cells overexpressing human TLR9, SEAP reporter, ODN2006 5 nM
T2 construct: host or cells: HEK-Blue cells (HEK293-derived reporter line)
T2 sequence (Q9NR96 26-1032): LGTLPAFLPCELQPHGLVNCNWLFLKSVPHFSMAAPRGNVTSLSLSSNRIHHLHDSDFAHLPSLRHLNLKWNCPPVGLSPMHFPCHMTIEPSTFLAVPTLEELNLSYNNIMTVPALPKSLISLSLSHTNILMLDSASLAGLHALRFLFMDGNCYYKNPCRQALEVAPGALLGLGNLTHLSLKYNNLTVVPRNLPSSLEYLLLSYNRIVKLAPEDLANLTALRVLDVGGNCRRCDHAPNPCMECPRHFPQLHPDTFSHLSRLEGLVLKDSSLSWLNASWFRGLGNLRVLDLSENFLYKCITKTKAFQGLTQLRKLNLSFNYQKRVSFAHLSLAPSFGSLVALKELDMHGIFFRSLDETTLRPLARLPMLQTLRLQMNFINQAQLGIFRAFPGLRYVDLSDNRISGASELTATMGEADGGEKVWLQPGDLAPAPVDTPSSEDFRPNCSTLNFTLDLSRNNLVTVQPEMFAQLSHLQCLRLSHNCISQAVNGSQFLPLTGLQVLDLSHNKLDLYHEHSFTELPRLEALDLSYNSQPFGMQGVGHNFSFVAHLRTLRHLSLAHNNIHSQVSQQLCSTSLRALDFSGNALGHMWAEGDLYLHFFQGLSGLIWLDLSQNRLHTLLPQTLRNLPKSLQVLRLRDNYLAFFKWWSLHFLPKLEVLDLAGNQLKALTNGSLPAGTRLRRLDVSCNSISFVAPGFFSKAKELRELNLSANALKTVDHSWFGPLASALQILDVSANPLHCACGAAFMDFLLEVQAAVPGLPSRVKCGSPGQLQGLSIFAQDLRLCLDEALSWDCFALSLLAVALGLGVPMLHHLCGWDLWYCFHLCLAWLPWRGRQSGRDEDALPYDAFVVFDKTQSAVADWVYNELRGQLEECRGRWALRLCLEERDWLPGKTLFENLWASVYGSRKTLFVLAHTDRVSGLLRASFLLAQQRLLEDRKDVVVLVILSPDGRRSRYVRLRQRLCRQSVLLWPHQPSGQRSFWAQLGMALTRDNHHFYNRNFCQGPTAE
How it was run: as §1

human TLR8 = target: T3, human TLR8 (Homo sapiens, UniProt Q9NR97); experiment: TLR8 inhibition reporter assay (HEK-Blue cells, SEAP reporter, R848 stimulation); conditions: HEK-Blue cells overexpressing human TLR8, SEAP reporter, R848 15.9 μM
T3 construct: host or cells: HEK-Blue cells (HEK293-derived reporter line)
T3 sequence (Q9NR97 27-1041): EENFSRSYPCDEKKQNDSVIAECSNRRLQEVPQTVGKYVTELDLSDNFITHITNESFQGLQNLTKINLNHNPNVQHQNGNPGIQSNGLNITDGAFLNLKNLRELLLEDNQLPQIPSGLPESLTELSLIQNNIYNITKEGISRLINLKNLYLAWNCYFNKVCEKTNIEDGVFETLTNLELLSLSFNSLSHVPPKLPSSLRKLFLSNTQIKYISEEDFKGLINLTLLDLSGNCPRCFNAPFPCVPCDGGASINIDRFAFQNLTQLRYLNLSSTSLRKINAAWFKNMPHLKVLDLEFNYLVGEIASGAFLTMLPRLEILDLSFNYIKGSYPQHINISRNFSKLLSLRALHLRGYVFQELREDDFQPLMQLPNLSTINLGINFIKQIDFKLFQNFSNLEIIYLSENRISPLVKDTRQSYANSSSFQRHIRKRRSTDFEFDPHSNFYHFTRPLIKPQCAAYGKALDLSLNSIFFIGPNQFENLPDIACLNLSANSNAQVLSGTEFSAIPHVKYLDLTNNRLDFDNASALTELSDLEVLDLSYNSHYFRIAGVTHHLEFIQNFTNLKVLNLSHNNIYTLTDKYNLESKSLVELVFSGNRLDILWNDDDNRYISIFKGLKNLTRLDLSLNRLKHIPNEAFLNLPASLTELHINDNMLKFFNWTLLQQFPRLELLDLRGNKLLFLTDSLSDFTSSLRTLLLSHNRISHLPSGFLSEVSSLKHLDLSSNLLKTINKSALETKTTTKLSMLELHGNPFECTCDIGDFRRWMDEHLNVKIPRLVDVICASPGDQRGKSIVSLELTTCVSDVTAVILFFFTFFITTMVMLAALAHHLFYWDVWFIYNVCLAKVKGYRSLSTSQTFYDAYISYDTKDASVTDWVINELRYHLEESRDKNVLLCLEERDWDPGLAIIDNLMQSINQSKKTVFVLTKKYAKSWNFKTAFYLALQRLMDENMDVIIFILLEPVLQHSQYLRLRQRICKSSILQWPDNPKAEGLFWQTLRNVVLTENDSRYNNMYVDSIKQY
How it was run: as §1

Compound	IC50 (human TLR7) [nM]	IC50 (human TLR9) [nM]	IC50 (human TLR8) [nM]
Cc1cc2nc(-c3[nH]c4ccc(C5CCN(CC(=O)N(C)C)CC5)cc4c3C(C)C)c(F)cn2n1 [Example 438, 2-(4-(2-(6-fluoro-2-methylpyrazolo[1,5-a]pyrimidin-5-yl)-3-isopropyl-1H-indol-5-yl)piperidin-1-yl)-N,N-dimethylacetamide]	100 to 1000	1000 to 50000	100 to 1000
Cc1cc(-c2[nH]c3ccc(C4CCN(CC(=O)N(C)C)CC4)cc3c2C(C)C)cn2ccnc12 [Example 398, 2-(4-(3-isopropyl-2-(8-methylimidazo[1,2-a]pyridin-6-yl)-1H-indol-5-yl)piperidin-1-yl)-N,N-dimethylacetamide]	< 100	100 to 1000	< 100
CCc1c(-c2cccc3c2cnn3C)[nH]c2ccc(C3CCN(C(=O)CN[C@H]4CC[C@@H](N)CC4)CC3)cc12 [Example 519, 2-(((1s,4s)-4-aminocyclohexyl)amino)-1-(4-(3-ethyl-2-(1-methyl-1H-indazol-4-yl)-1H-indol-5-yl)piperidin-1-yl)ethan-1-one]	> 50000	1000 to 50000	> 50000
COc1cc(-c2[nH]c3ccc(C4CCN(C5CCOCC5)CC4)cc3c2C(C)C)nn2ncnc12 [Example 692, 6-(3-isopropyl-5-(1-(tetrahydro-2H-pyran-4-yl)piperidin-4-yl)-1H-indol-2-yl)-8-methoxy-[1,2,4]triazolo[1,5-b]pyridazine]	< 100	1000 to 50000	< 100
CNCCN1CCC(c2ccc3[nH]c(-c4ccc5c(c4)OCO5)c(C)c3c2)CC1 [Example 670, 2-(4-(2-(benzo[d][1,3]dioxol-5-yl)-3-methyl-1H-indol-5-yl)piperidin-1-yl)-N-methylethan-1-amine]	100 to 1000	1000 to 50000	100 to 1000
CCc1c(-c2ccc3onc(N)c3c2)[nH]c2ccc(C3CCNCC3)cc12 [Example 95, 5-(3-ethyl-5-(piperidin-4-yl)-1H-indol-2-yl)benzo[d]isoxazol-3-amine]	1000 to 50000	1000 to 50000	100 to 1000
CCc1c(-c2ccnc3c(N)noc23)[nH]c2ccc(C3CCNCC3)cc12 [Example 239, 7-(3-ethyl-5-(piperidin-4-yl)-1H-indol-2-yl)isoxazolo[4,5-b]pyridin-3-amine]	1000 to 50000	100 to 1000	100 to 1000
CNCC(=O)N1CCC(c2ccc3[nH]c(-c4cc(C)c5ncccc5c4)c(C(C)C)c3c2)CC1 [Example 560, 1-(4-(3-isopropyl-2-(8-methylquinolin-6-yl)-1H-indol-5-yl)piperidin-1-yl)-2-(methylamino)ethan-1-one]	< 100	1000 to 50000	< 100
CC(C)c1c(-c2cn(C)c3ncncc23)[nH]c2ccc(C3CCN(C4CCOCC4)CC3)cc12 [Example 688, 5-(3-isopropyl-5-(1-(tetrahydro-2H-pyran-4-yl)piperidin-4-yl)-1H-indol-2-yl)-7-methyl-7H-pyrrolo[2,3-d]pyrimidine]	< 100	1000 to 50000	< 100
CNCCN1CCC(c2ccc3[nH]c(-c4ccc5c(ccn5C)c4)c(C)c3c2)CC1 [Example 672, 2-(4-(1′,3-dimethyl-1H,1′H-[2,5′-biindol]-5-yl)piperidin-1-yl)-N-methylethan-1-amine]	> 50000	100 to 1000	> 3130
COc1cc(-c2[nH]c3ccc(C4CCN(CC(=O)N(C)C)CC4)cc3c2C(C)C)cc2ncnn12 [Example 333, 2-(4-(3-isopropyl-2-(5-methoxy-[1,2,4]triazolo[1,5-a]pyridin-7-yl)-1H-indol-5-yl)piperidin-1-yl)-N,N-dimethylacetamide]	< 100	1000 to 50000	< 100
Cc1n[nH]c2nccc(-c3[nH]c4ccc(C5CCN(Cc6cnc[nH]6)CC5)cc4c3C(C)C)c12 [Example 875, 4-(5-(1-((1H-imidazol-5-yl)methyl)piperidin-4-yl)-3-isopropyl-1H-indol-2-yl)-3-methyl-1H-pyrazolo[3,4-b]pyridine]	100 to 1000	100 to 1000	< 100
CC(C)c1c(-c2ccc(C#N)c3ncccc23)[nH]c2ccc(C3CCN(CC(N)=O)CC3)cc12 [Example 369, 2-(4-(2-(8-cyanoquinolin-5-yl)-3-isopropyl-1H-indol-5-yl)piperidin-1-yl)acetamide]	< 100	1000 to 50000	< 100
Cc1cc2nnnn2cc1-c1[nH]c2ccc(C3CCN(C4CCS(=O)(=O)CC4)CC3)cc2c1C(C)C [Example 791, 4-(4-(3-isopropyl-2-(7-methyltetrazolo[1,5-a]pyridin-6-yl)-1H-indol-5-yl)piperidin-1-yl)tetrahydro-2H-thiopyran 1,1-dioxide]	< 100	1000 to 50000	< 100
